According to patent US8846669B2, “Oxazolidinone derivative and medical composition containing same” (Legochem Biosciences, Inc., priority 2011, dated 2014):
Converted amounts (≈) assume the structure as drawn. Read-outs that look alike come from different tables or passages of the source.

Assays:
Assay in all cases: In vitro antibacterial activity, broth microdilution MIC90
Format in all cases: cell-based
[1] = test system: Vancomycin Resistant Enterococcus faecium
Experimental: (§1) MIC90 was measured by broth microdilution method based on CLSI standards [reference: Clinical and Laboratory Standards Institute Document. (2000) Methods for Dilution Antimicrobial Susceptibility Test for Bacteria that Grow Aerobically-Fifth Edition: M7-A5. CLSI, Villanova, Pa.].
(§2) Activities of 12 strains including Staphylococcus aureus, Methicillin Resistant Staphylococcus aureus, Staphylococcus epidermidis, Methicillin Resistant Staphylococcus epidermidis, Enterococcus faecalis, Vancomycin Resistant Enterococcus faecalis, Linezolid and Vancomycin Resistant Enterococcus faecalis, Enterococcus faecium, Vancomycin Resistant Enterococcus faecium, Linezolid and Vancomycin Resistant Enterococcus faecium, and Moraxella catarrhalis, were measured, and results are shown in Table 1 below.
(§3) The final concentration of test material in the antibacterial test was from 0.063 μg/mL (minimum) to 128 μg/mL (maximum), and the final concentration of DMSO used as an excipient was 2.5% (V/V). Linezolid represented by Formula B below (manufactured by Pfizer) was used as a control and bacterial activity thereof was compared with those of the test materials.

[2] = test system: Methicillin Resistant Staphylococcus aureus
Experimental: as §1, §2, §3

[3] = test system: Moraxella catarrhalis
Experimental: as §1, §2, §3

[4] = test system: Linezolid and Vancomycin Resistant Enterococcus faecium (strain 11)
Experimental: as §1, §2, §3

[5] = test system: Enterococcus faecium
Experimental: as §1, §2, §3

[6] = test system: Vancomycin Resistant Enterococcus faecalis
Experimental: as §1, §2, §3

[7] = test system: Linezolid and Vancomycin Resistant Enterococcus faecium (strain 10)
Experimental: as §1, §2, §3

[8] = test system: Linezolid and Vancomycin Resistant Enterococcus faecalis; settings: for antibacterial activity against linezolid-resistant bacteria (in words): Enterococcus faecalis and Enterococcus faecium which are resistant to linezolid
Experimental: as §1, §2, §3

[9] = test system: Enterococcus faecalis
Experimental: as §1, §2, §3

[10] = test system: Staphylococcus aureus
Experimental: as §1, §2, §3

[11] = test system: Staphylococcus epidermidis
Experimental: as §1, §2, §3

[12] = test system: Methicillin Resistant Staphylococcus epidermidis
Experimental: as §1, §2, §3

[13] = Enterococcus faecium, strain 9, E. faecium VanA, read-out: MIC90
[14] = Staphylococcus aureus, strain 2, S. aureus MR, read-out: MIC90
[15] = Moraxella catarrhalis, strain 12, M. catarrhalis, read-out: MIC90
[16] = Enterococcus faecium, strain 11, E. faecium VanA LR, read-out: MIC90
[17] = Enterococcus faecium, strain 8, E. faecium, read-out: MIC90
[18] = Enterococcus faecalis, strain 6, E. faecalis VanA, read-out: MIC90
[19] = Enterococcus faecium, strain 10, E. faecium VanA LR, read-out: MIC90
[20] = Enterococcus faecalis, strain 7, E. faecalis VanA LR, read-out: MIC90
[21] = Enterococcus faecalis, strain 5, E. faecalis, read-out: MIC90
[22] = Staphylococcus aureus, strain 1, S. aureus, read-out: MIC90
[23] = Staphylococcus epidermidis, strain 3, S. epidermidis, read-out: MIC90
[24] = Staphylococcus epidermidis, strain 4, S. epidermidis MR, read-out: MIC90

Row | Compound | MIC90 ([1]; Enterococcus faecium) [µg/mL] | MIC90 ([2]; Staphylococcus aureus) [µg/mL] | MIC90 ([3]; Moraxella catarrhalis) [µg/mL] | MIC90 ([4]; Enterococcus faecium) [µg/mL] | MIC90 ([5]; Enterococcus faecium) [µg/mL] | MIC90 ([6]; Enterococcus faecalis) [µg/mL] | MIC90 ([7]; Enterococcus faecium) [µg/mL] | MIC90 ([8]; Enterococcus faecalis) [µg/mL] | MIC90 ([9]; Enterococcus faecalis) [µg/mL] | MIC90 ([10]; Staphylococcus aureus) [µg/mL] | MIC90 ([11]; Staphylococcus epidermidis) [µg/mL] | MIC90 ([12]; Staphylococcus epidermidis) [µg/mL] | other results
1 | CC(=O)NC[C@H]1CN(c2ccc(-c3ccc(N4CCN(C(=O)CO)C=N4)nc3)c(F)c2)C(=O)O1 [Compound 54] | 0.063 (≈ 0.134 µM) | 0.5 (≈ 1.06 µM) | 1 (≈ 2.13 µM) | 0.5 (≈ 1.06 µM) | 0.25 (≈ 0.531 µM) | 0.063 (≈ 0.134 µM) | 0.5 (≈ 1.06 µM) | 0.5 (≈ 1.06 µM) | 0.063 (≈ 0.134 µM) | 0.25 (≈ 0.531 µM) | 0.125 (≈ 0.266 µM) | 0.5 (≈ 1.06 µM) | antibacterial activity against linezolid-resistant bacteria (in words) [8]: very high antibacterial activity
2 | CN1CCN(c2ccc(-c3ccc(N4C[C@H](CNc5ccon5)OC4=O)cc3F)cn2)C=N1 [Compound 40] |  |  |  |  |  |  |  |  |  |  |  |  | MIC90 ([1]; strain 9, E. faecium VanA): 0.5 µg/mL (≈ 1.11 µM); MIC90 ([2]; strain 2, S. aureus MR): 0.25 µg/mL (≈ 0.554 µM); MIC90 ([3]; strain 12, M. catarrhalis): 2 µg/mL (≈ 4.43 µM); MIC90 ([4]; strain 11, E. faecium VanA LR): 4 µg/mL (≈ 8.86 µM); MIC90 ([5]; strain 8, E. faecium): 0.125 µg/mL (≈ 0.277 µM); MIC90 ([6]; strain 6, E. faecalis VanA): 1 µg/mL (≈ 2.22 µM); MIC90 ([7]; strain 10, E. faecium VanA LR): 4 µg/mL (≈ 8.86 µM); MIC90 ([8]; strain 7, E. faecalis VanA LR): 2 µg/mL (≈ 4.43 µM); MIC90 ([9]; strain 5, E. faecalis): 0.5 µg/mL (≈ 1.11 µM); MIC90 ([10]; strain 1, S. aureus): 0.25 µg/mL (≈ 0.554 µM); MIC90 ([11]; strain 3, S. epidermidis): 0.5 µg/mL (≈ 1.11 µM); MIC90 ([12]; strain 4, S. epidermidis MR): 2 µg/mL (≈ 4.43 µM)
3 | CC(=O)NC[C@H]1CN(c2ccc(-c3ccc(N4C=NOCC4)nc3)c(F)c2)C(=O)O1 [Compound 57] |  |  |  |  |  |  |  |  |  |  |  |  | MIC90 [1, 13]: 0.125 µg/mL (≈ 0.302 µM); MIC90 [2, 14]: 0.5 µg/mL (≈ 1.21 µM); MIC90 [3, 15]: 2 µg/mL (≈ 4.84 µM); MIC90 [4, 16]: 2 µg/mL (≈ 4.84 µM); MIC90 [5, 17]: 0.125 µg/mL (≈ 0.302 µM); MIC90 [6, 18]: 0.25 µg/mL (≈ 0.605 µM); MIC90 [7, 19]: 1 µg/mL (≈ 2.42 µM); MIC90 [8, 20]: 1 µg/mL (≈ 2.42 µM); MIC90 [9, 21]: 0.25 µg/mL (≈ 0.605 µM); MIC90 [10, 22]: 0.25 µg/mL (≈ 0.605 µM); MIC90 [11, 23]: 0.25 µg/mL (≈ 0.605 µM); MIC90 [12, 24]: 0.5 µg/mL (≈ 1.21 µM)
4 | Cl.O=C1O[C@@H](COc2ccon2)CN1c1ccc(-c2ccc(N3C=NNCC3)nc2)c(F)c1 [Compound 44] |  |  |  |  |  |  |  |  |  |  |  |  | MIC90 ([1]; strain 9, E. faecium VanA): 2 µg/mL; MIC90 ([2]; strain 2, S. aureus MR): 1 µg/mL; MIC90 ([3]; strain 12, M. catarrhalis): >128 µg/mL; MIC90 ([4]; strain 11, E. faecium VanA LR): 16 µg/mL; MIC90 ([5]; strain 8, E. faecium): 1 µg/mL; MIC90 ([6]; strain 6, E. faecalis VanA): 4 µg/mL; MIC90 ([7]; strain 10, E. faecium VanA LR): 16 µg/mL; MIC90 ([8]; strain 7, E. faecalis VanA LR): 16 µg/mL; MIC90 ([9]; strain 5, E. faecalis): 4 µg/mL; MIC90 ([10]; strain 1, S. aureus): 0.5 µg/mL; MIC90 ([11]; strain 3, S. epidermidis): 1 µg/mL; MIC90 ([12]; strain 4, S. epidermidis MR): 4 µg/mL
5 | O=C(C(O)CO)N1CCN(c2ccc(-c3ccc(N4C[C@H](Cn5ccnn5)OC4=O)cc3F)cn2)C=N1 (some centres unmarked) [Compound 37] | 1 (≈ 1.96 µM) | 1 (≈ 1.96 µM) | 8 (≈ 15.7 µM) | 8 (≈ 15.7 µM) | 1 (≈ 1.96 µM) | 1 (≈ 1.96 µM) | 8 (≈ 15.7 µM) | 8 (≈ 15.7 µM) | 1 (≈ 1.96 µM) | 0.5 (≈ 0.979 µM) | 1 (≈ 1.96 µM) | 2 (≈ 3.92 µM) | 
6 | COC(=O)NC[C@H]1CN(c2ccc(-c3ccc(N4C=NN(C(N)=O)CC4)nc3)c(F)c2)C(=O)O1 [Compound 26] | 0.5 (≈ 1.06 µM) | 1 (≈ 2.12 µM) | 4 (≈ 8.48 µM) | 2 (≈ 4.24 µM) | 0.25 (≈ 0.53 µM) | 0.5 (≈ 1.06 µM) | 4 (≈ 8.48 µM) | 4 (≈ 8.48 µM) | 0.5 (≈ 1.06 µM) | 0.25 (≈ 0.53 µM) | 0.5 (≈ 1.06 µM) | 1 (≈ 2.12 µM) | 
7 | CN1CCON=C1c1ccc(-c2ccc(N3C[C@H](CO)OC3=O)cc2F)cn1 [Compound 71] |  |  |  |  |  |  |  |  |  |  |  |  | MIC90 [1, 13]: 2 µg/mL (≈ 5.18 µM); MIC90 [2, 14]: 4 µg/mL (≈ 10.4 µM); MIC90 [3, 15]: 8 µg/mL (≈ 20.7 µM); MIC90 [4, 16]: 16 µg/mL (≈ 41.4 µM); MIC90 [5, 17]: 2 µg/mL (≈ 5.18 µM); MIC90 [6, 18]: 2 µg/mL (≈ 5.18 µM); MIC90 [7, 19]: 8 µg/mL (≈ 20.7 µM); MIC90 [8, 20]: 16 µg/mL (≈ 41.4 µM); MIC90 [9, 21]: 4 µg/mL (≈ 10.4 µM); MIC90 [10, 22]: 2 µg/mL (≈ 5.18 µM); MIC90 [11, 23]: 2 µg/mL (≈ 5.18 µM); MIC90 [12, 24]: 4 µg/mL (≈ 10.4 µM)
8 | CC(=O)NC[C@H]1CN(c2ccc(-c3ccc(N4C=NN(C)CC4)nc3)c(F)c2)C(=O)O1 [Compound 3] | 0.125 (≈ 0.293 µM) | 0.5 (≈ 1.17 µM) | 0.25 (≈ 0.586 µM) | 0.5 (≈ 1.17 µM) | 0.063 (≈ 0.148 µM) | 0.125 (≈ 0.293 µM) | 0.5 (≈ 1.17 µM) | 0.5 (≈ 1.17 µM) | 0.25 (≈ 0.586 µM) | 0.063 (≈ 0.148 µM) | 0.125 (≈ 0.293 µM) | 0.5 (≈ 1.17 µM) | antibacterial activity against linezolid-resistant bacteria (in words) [8]: very high antibacterial activity
9 | CNC(=O)N1CCN(c2ccc(-c3ccc(N4C[C@H](CNC(=O)OC)OC4=O)cc3F)cn2)C=N1 [Compound 27] | 0.5 (≈ 1.03 µM) | 2 (≈ 4.12 µM) | 4 (≈ 8.24 µM) | 2 (≈ 4.12 µM) | 0.25 (≈ 0.515 µM) | 0.5 (≈ 1.03 µM) | 2 (≈ 4.12 µM) | 4 (≈ 8.24 µM) | 0.5 (≈ 1.03 µM) | 0.5 (≈ 1.03 µM) | 1 (≈ 2.06 µM) | 2 (≈ 4.12 µM) | 
